Measured values published in patent publication US10485800B2, “Mixed lineage kinase inhibitors for HIV/AIDS therapies” (UNIVERSITY OF ROCHESTER, priority 2012, dated 2019).

What was measured:
[1] = test system: primary rat hippocampal neurons; details: primary rat hippocampal and dorsal root ganglion neurons; cited from earlier work
MLK3 = MLK3 (Rattus norvegicus (Rat), UniProt Q66HA1); details: primary rat neurons; cited from earlier work
HIV-1 = details: in vivo model of HIV-1 infection; cited from earlier work
HIV-1 ADA = experiment: HIV-1 infection model in humanized mice; assay type: in vivo; details: nanoART 6 weeks s.c.; Compound AH 10 mg/kg i.p. once daily during final two weeks
Experimental: The MLK inhibitor Compound AH was used in test with an animal model for HIV-1 infection. Specifically, 22 week old humanized mice (NOD/scidIL-2Rγc^null (NSG) mice stably engrafted with human CD34+ hematopoeitic stem cells were infected with HIV-1 ADA (Gorantla et al., J. Virol. 81:2700-2712, 2007). The mice were then treated with the nanoformulated antiretroviral therapy comprising atazanavir and ritonavir (nanoART) for 6 weeks by s.c. injections (6×/week). During the final two weeks, the animals also received the MLK-3 inhibitor Compound AH by once daily injection (10 mg/kg i.p.). Viral RNA load was measured over time in plasma from these mice, and productively infected cells were counted in tissues harvested from animals at sacrifice (including lymph node (FIG. 4) and spleen (FIG. 5)).
Further, starting at 10 weeks post infection, when the mice were at the peak of their viral load (VL) the MLK-3 inhibitor Compound AH was administered daily and the nanoART was administered weeks for three weeks. Peripheral VL ratio of human CD4+ and CD8+ T lymphocyte, drug levels in plasma and organs and pathological changes in lymphoid and brain tissues were investigated.
(§1) Higher plasma drug levels correspond to lowest viral load.

Rab7 = Rab7 (Homo sapiens (Human), UniProt P51149); experiment: Proteomic analyses of human monocyte-derived macrophages (Rab7); assay type: cell-based; details: HIV-1 infected MDM
Text: FIG. 7 (top) is a schematic of a proteomic analysis.
FIG. 8 is a photograph from a Western blot validation for Rab7a. Rab7A (Protein KB) is a key regulator in endolysosomal trafficking. It governs early-to-late endosomal maturation, microtubule minus-end as well as plus-end directed endosomal migration and positioning, and endosome-lysosome transport.
as §1

Human monocytes = experiment: Tat-assays: Tat-induced cytokine and chemokine production in human monocytes (Luminex); assay type: cell-based; details: 50 nM HIV-1 Tat, 8 hours
Experimental: Human monocytes were isolated from freshly collected whole blood using CD14 immunomagnetic beads (Miltenyi-Biotec). Cells were then plated in 24-well plates at 5×10^4 cells/well in RPMI-1640 culture medium supplemented with 10% fetal bovine serum (FBS). The specified compounds were then added to the cultures at the indicated concentrations (100, […], 1000 nM); in control wells, no compound was added. 30 min later, HIV-1 Tat was added to a final concentration of 50 nM the cells were incubated for 8 hours (in control wells, nothing was added [NT]). Cell supernatants were then collected, centrifuged 15 min at 13000 rpm to remove debris, transferred to new microcentrifuge tubes and frozen at −20° C. A Luminex bead array assay was then performed, for the indicated chemokines and cytokines. Results were measured in triplicate or quadruplicate, and data are presented as mean values; error bars denote the standard deviation. Note that similar results were obtained with monocytes derived from multiple (n>5) different donors, as well as in terminally differentiated monocyte-derived macrophages (data not shown due to space limitations). *:p<0.05; one-way ANOVA with Bonferroni's correction (when compared to Tat only control). See FIG. 11 (tat-induced cytokine production) and FIG. 12 (tat-induced chemokine production).

MOG35-55 EAE mice = experiment: MOG35-55 EAE model; assay type: in vivo
Text: Hippocampal synaptic injury in MOG35-55 EAE mice correlates with microglial activation and may occur independent of myelin loss. […] Protective effects in EAE hippocampal gray matter appear dissociable from those in the spinal cord. Many interventions targeting microglial function affect EAE motor deficits and the spinal cord inflammation that those largely reflect.

[2] = test system: Rab 7 late endosomal compartment; experiment: Rab studies: nanoART drug levels in endosomal compartments; assay type: cell-based
Experimental: FIG. 25 is a graph showing that Compound AH is able to sustain the presence of atazanavir/ritonavir nanoART in late endosomes. Concentrations of 1 and 10 ng/mL of Compound AH increases drug levels for more than 10 days in these compartments. This is significant and reproducible. […] Thus more of the drug is present in there for longer time periods, boosting efficacy and leading to reduction of residual virus.
The Rab 7 compartment increased marked in size and expression (protein content) as a result of HIV infection. […] That is also where anti-HIV proteases work and where their sites of actions lie. […] This signals that the combination has eliminated or nearly so, the ability of virus to assemble in this compartment.

Tat = Tat (Human immunodeficiency virus type 1 group M subtype B (isolate HXB2) (HIV-1), UniProt P04608); experiment: Tat injection model, synapse protection and neuroinflammation (FIGS. 10-24); assay type: in vivo
Tat, sequence (P04608 whole entry, looked up): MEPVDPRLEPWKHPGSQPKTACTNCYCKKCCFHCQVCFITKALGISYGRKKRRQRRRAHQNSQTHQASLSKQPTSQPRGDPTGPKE
Experimental: FIG. 19 is a group of photographs showing IHC synapse protection. Map2 staining 28 days post injection at the injection site. Pre/continuous treatment with Compound AH at 10 mg/kg i.p. q 12, 9 μg of Tat injected at 80 nL/min. The same Compound AH/Tat treatment paradigm was used in FIGS. 20-24.
(FIGS. 10-24). The compound is a selectively non-selective inhibitor for a subset of kinases that have pathogenetic roles for activation of immune effector cells with damage to target cells (neurons, myocytes, pancreatic acinar cells) in both central and peripheral degenerative diseases with autoimmune components.

MLK3, sequence (Q66HA1 whole entry): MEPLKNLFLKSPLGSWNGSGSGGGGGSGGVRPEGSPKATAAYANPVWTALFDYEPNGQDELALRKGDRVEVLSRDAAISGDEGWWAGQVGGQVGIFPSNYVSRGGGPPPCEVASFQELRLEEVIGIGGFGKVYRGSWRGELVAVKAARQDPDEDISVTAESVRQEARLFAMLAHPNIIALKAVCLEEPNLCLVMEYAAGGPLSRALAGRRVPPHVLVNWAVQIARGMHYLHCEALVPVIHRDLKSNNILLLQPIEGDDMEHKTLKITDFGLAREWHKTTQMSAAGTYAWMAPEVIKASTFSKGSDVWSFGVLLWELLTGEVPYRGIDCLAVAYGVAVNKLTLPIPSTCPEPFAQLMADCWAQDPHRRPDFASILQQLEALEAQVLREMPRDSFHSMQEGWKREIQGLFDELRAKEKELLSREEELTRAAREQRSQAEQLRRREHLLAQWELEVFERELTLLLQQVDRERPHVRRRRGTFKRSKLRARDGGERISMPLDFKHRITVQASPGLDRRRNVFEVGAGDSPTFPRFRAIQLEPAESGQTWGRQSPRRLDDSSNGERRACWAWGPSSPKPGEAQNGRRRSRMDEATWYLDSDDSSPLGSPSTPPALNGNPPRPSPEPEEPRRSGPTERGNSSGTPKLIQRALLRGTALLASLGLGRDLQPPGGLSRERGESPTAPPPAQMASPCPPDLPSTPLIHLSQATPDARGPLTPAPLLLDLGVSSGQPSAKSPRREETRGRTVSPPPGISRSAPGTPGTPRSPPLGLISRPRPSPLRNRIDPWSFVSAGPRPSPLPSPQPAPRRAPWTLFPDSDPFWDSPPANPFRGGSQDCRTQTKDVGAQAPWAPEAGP

Row | SMILES | protection of neurons from lethal effects of HIV-1 gp120 [1] | Tat and gp120 induced autophosphorylation of MLK3 (MLK3) | neuroprotection in vivo (HIV-1) | HIV-1 viral load (HIV-1 ADA) | Rab7 protein regulation (Rab7) | tat-induced cytokine production (Human monocytes; FIG. 11) | tat-induced chemokine production (Human monocytes; FIG. 12) | microglial activation in EAE hippocampus (MOG35-55 EAE mice; EAE hippocampus) | synaptic structure in EAE hippocampus (MOG35-55 EAE mice; EAE hippocampus) | EAE motor deficits (MOG35-55 EAE mice; treatment at onset of clinical disease) | time for which atazanavir/ritonavir nanoART drug levels in late endosomes are increased ([2]; 1 and 10 ng/mL of Compound AH, FIG. 25) | drug levels in Rab compartments ([2]; Compound AH induction) | neuroprotection to the synapse (Tat; Compound AH 10 mg/kg i.p. q 12, 9 μg of Tat injected) | neuroinflammation (Tat; FIGS. 10-24)
1 | CCSCc1ccc2c(c1)c1c3c(c4c5cc(CSCC)ccc5n5c4c1n2[C@H]1C[C@](O)(C(=O)OC)[C@]5(C)O1)CNC3=O (relative stereo) [CEP1347, 3,9-bis[(ethylthio)methyl]-(8R*,9S*, 11S*)-(−)-9-hydroxy-9-methoxycarbonyl-8-methyl-2,3,9,10-tetrahydro-8,11-epoxy-1H,8H, 11H-2,7b,11a-triazadibenzo(a,g)cycloocta(cde)trinden-1-one] | can protect primary rat hippocampal neurons as well as dorsal root ganglion neurons | abolished | neuroprotective | – | – | – | – | – | – | – | – | – | – | –
2 | CN1CCN(Cc2ccc(-c3cnc4[nH]cc(-c5ccc6[nH]ccc6c5)c4c3)cc2)CC1 [Compound AH] | – | – | – | modest reducing in HIV-1 viral load | induced the RAS-related GTP-binding protein Rab7 | blocks tat-induced cytokine production | blocks tat-induced chemokine production | attenuates microglial activation | protects synaptic structure | no effect on EAE motor deficits | more than 10 days | general increase in drug levels was seen in all Rab compartments | provides neuroprotection to the synapse | anti-neuroinflammatory
